Literature values, collected in PMC7584369, “Di-bromo-Based Small-Molecule Inhibitors of the PD-1/PD-L1 Immune Checkpoint” (Journal of Medicinal Chemistry, 2020).

System: PD-L1
Details: several independent biophysical and cell-based assays; cited from earlier work

## C[C@@H](O)[C@H](NC(=O)N[C@@H](CC(N)=O)c1nc([C@@H](N)CO)no1)C(=O)O [CA-170]
  direct binding to PD-L1: not a direct PD-L1-binder
